From publication PMC12692861, “Biotin-Linked Ursolic Acid Conjugates as Selective Anticancer Agents and Target-Identification Tools for Cancer Therapy” (Molecules, 2025)

Legend:
DNA topoisomerase = experiment: Streptavidin pulldown proteomics (LC-MS/MS), 5637 cells; type: binding, human; details: 5637, 50 µM
Procedure: (§1) We used proteomics to identify potential molecular targets of 5c. A pulldown assay with streptavidin-agarose-coated magnetic beads was performed. Briefly, 5637 and MB49 cells were incubated with 50 µM 5c for 10 min and 1 h. After incubation, the cells were rinsed three times with cold phosphate-buffered saline (PBS), and cell lysates were prepared and clarified by centrifugation to remove cellular debris, including nuclei. The clarified lysates were incubated with streptavidin-coated magnetic beads to selectively bind biotinylated contents. Bound proteins were separated from unbound proteins through thorough bead washing. Proteins attached to the beads were eluted and analyzed on an Orbitrap Fusion Tribrid mass spectrometer (Thermo Scientific, New York, NY, USA) coupled with an Ultimate 3000 nano-UPLC system. Samples were trapped on a PepMap100 C18 trap column (5 µm, 0.3 × 5 mm) and separated on a PepMap RSLC C18 column (2 µm, 75 µm × 150 mm) using a gradient from 2 to 40% acetonitrile with 0.1% formic acid over 120 min at […] and 40 °C. MS data were acquired in positive mode using data-dependent acquisition (DDA), with precursor scans at 120,000 FWHM (400–2000 m/z), and MS/MS scans in top-speed mode (3 s cycle) using HCD fragmentation (NCE 32%). Proteins were identified and quantified based on peptide spectral matches (PSMs), and fold enrichment compared to controls was calculated to evaluate interaction strength.
(§2) The 5637 and MB49 cells were cultured and treated with higher concentrations of 5c (50 µM) for short period of times (10 min & 60 min) followed by whole cell lysis (WCL) preparation of both treated and untreated cells using modified RIPA buffer [NaCl (100mM), TrisCl (20mM, pH 7.4), EDTA (10 mM), TritonX-100 (0.5%), Glycerol (5%), Protease inhibitor cocktail (1x)] with gentle continuous rotation. The protein content of each WCL was estimated using Pierce™ BCA Protein Assay kit (Thermo-Scientific # 23225). The 100 µL of resuspended Dynabeads™ MyOne™ Streptavidin C1 (Invitrogen # 65001) were washed with PBST (PBS with 0.01% Tween™20) in a magnet stand as recommended in the manufacturer’s instructions. The washed beads were incubated with 200 µg of each WCL in separate tubes at room temperature for 2 h in a gentle end-over-end mixing. After incubation, beads were washed 3–5 times with PBST (0.01% Tween-20) on a magnetic stand and beads were decanted by after spinning and magnetization. The samples were stored at −80 °C till further analysis using LC-MS/MS by the Proteomics and Mass Spectrometry Core Laboratory of Augusta University.

[1] = test system: Coiled-coil domain-containing protein; experiment: as above; type: binding, human; details: 5637, 50 µM
Procedure: as §1, §2

[2] = test system: Eukaryotic translation initiation factor 2 (eIF2); experiment: as above; type: binding, human; details: 5637, 50 µM
Procedure: as §1, §2

[3] = test system: Eukaryotic initiation factor 4A (eIF4A); experiment: as above; type: binding, human; details: 5637, 50 µM
Procedure: as §1, §2

5637 cells = experiment: ROS estimation with H2DCFDA; type: cell-based, human; details: 5637, 24 h, especially at concentrations above 20 µM
Procedure: (§3) Since 5c was not toxic to non-tumorigenic cells, such as MCF12A and UROtsa, these cells were excluded from experiments aimed at identifying the broad mechanism of cytotoxicity. A common mechanism by which these antioxidants induce cytotoxicity in tumor cells is by generating Reactive Oxygen Species (ROS) selectively in fast-growing tumor cells. The levels of ROS generated by 5c exposed cells were evaluated with the oxidation of 2′,7′-dichlorodihydrofluorescein diacetate (H2DCFDA). It is a cell-permeant fluorescent probe used for detecting ROS production (Thermo Scientific Inc., Waltham, MA, USA). […] Figure 3 illustrates the quantification of intracellular ROS levels in four bladder cancer cell lines, 5637, T24, HT-1376, and MB49, following treatment with UA and its biotin-conjugated derivative, compound 5c.
(§4) The relative levels of intracellular ROS produced in untreated and drug-treated cells were analyzed by fluorimetry using the fluorescent probe H2DCFDA (Sigma-Aldrich, #D6883, St. Louis, MI, USA), as described previously. Briefly, cells cultured in a 96-well plate at 1 × 10^4 cells per well were treated with drugs of interest for 24 h rinsed with sterile PBS to remove excess drugs, and incubated with 10 μM DCFDA for 30 min at 37 °C and 5% CO2. Following three rinses with PBS, the fluorescence intensity was recorded at excitation: 485/20, emission: 528/20 using a BioTek Synergy HTX Multimode fluorescence plate reader (Agilent Technologies, Inc., Santa Clara, CA, USA), and the data were represented as percentage change compared to the respective untreated control.
(§5) Figure 3 Estimation of oxidative stress: Treatment with UA or 5c increased ROS levels in various bladder cancer cells. ROS levels were estimated at 24 h using DCFDA. The relative fluorescence unit (RFU) was normalized to that observed in untreated cells and expressed as a percent increase. Data are Means ± SD, (n = 4). Relative significance, expressed as p-value are calculated based on one-way ANOVA.

HT1376 cells = experiment: ROS estimation with H2DCFDA; type: cell-based, human; details: HT1376, 24 h, especially at concentrations above 20 µM
Procedure: as §3, §4, §5

[4] = test system: Coiled-coil domain-containing protein; experiment: Streptavidin pulldown proteomics (LC-MS/MS), MB49 cells; type: binding, murine; details: MB-49, 50 µM
Procedure: as §1, §2

[5] = test system: Eukaryotic translation initiation factor 2 (eIF2); experiment: as above; type: binding, murine; details: MB-49, 50 µM
Procedure: as §1, §2

`CC1CCC2(C(=O)OCCCCOC(=O)CCCCC3SCC4NC(=O)NC43)CCC3(C)C(=CCC4C5(C)CCC(O)C(C)(C)C5CCC43C)C2C1C` [Compound 5c, 4-((5-((3aS,4S,6aR)-2-Oxohexahydro-1H-thieno [3,4-d]imidazol-4-yl)pentanoyl)oxy) butyl 3-hydroxy-urs-12-en-28-oate] was tested, and the “Fold Change 10 min/Ctrl” value (DNA topoisomerase) was 0.08, the “Fold Change 1 h/Ctrl” value (DNA topoisomerase) was 0.11 and the “Fold Change 10 min/Ctrl” value [1] was 0. For the same compound, the “Fold Change 1 h/Ctrl” value [1] was 2, the “Fold Change 10 min/Ctrl” value [2] was 14 and the “Fold Change 1 h/Ctrl” value [2] was 7. The “Fold Change 10 min/Ctrl” value [3] was 22, the “Fold Change 1 h/Ctrl” value [3] was 19 and the “ROS levels” value (5637 cells) was “higher levels of ROS than UA”. For the same compound, the “ROS levels” value (HT1376 cells) was “higher levels of ROS than UA”, the “Fold Change 10 min/Ctrl” value [4] was 0 and the “Fold Change 1 h/Ctrl” value [4] was 0. The “Fold Change 10 min/Ctrl” value [5] was 2 and the “Fold Change 1 h/Ctrl” value [5] was 0.
